Measured values as given in US20080193943A1, “Companion diagnostic assays for cancer therapy” (ABBOTT LABORATORIES, priority 2006, published 2008).

Columns and labels:
NCI-H526 = experiment: sensitivity of SCLC cell line to ABT-737; type: cell-based; details: Homo sapiens, read-out: sensitivity to ABT-737 (EC50 class)
Description: (§1) The following SCLC cell lines were obtained from ATCC (Manassis, Va.): NCI-H889, NCI-H1963, NCI-H1417, NCI-H146, NCI-H187, DMS53, NCI-H510, NCI-H1209, NCI-H526, NCI-H211, NCI-H345, NCI-H524, NCI-H69, NCI-H748, DMS79, NCI-H711, SHP77, NCI-446, NCI-H1048, NCI-H82, NCI-H196, SW1271, H69AR. All cells were cultured in the ATCC recommended media at 37° C. in a humidified atmosphere containing 5% CO2. Genomic DNA was isolated from the cell lines using a DNAeasy kit (Qiagen, Valencia, Calif.).
(§2) The 23 SCLC cell lines were tested for sensitivity to ABT-737 using the procedure described in Oltersdorf, T., “An inhibitor of Bcl-2 family proteins induces regression of solid tumours”, Nature, 435: 677-681, 2005, with a cell line classified as sensitive if its EC50<1 μM and as resistant if its EC50>10 μM. The sensitive cell line group consisted of NCI-H889, NCI-H1963, NCI-H1417, NCI-H146, NCI-H187, DMS 53, NCI-H510, NCI-H209, NCI-H526, NCI-H211, NCI-H345, and NCI-H524 and the resistant cell line group was comprised of NCI-H82, NCI-H196, SW1271, and H69AR.

NCI-H524 = experiment: sensitivity of SCLC cell line to ABT-737; type: cell-based; details: Homo sapiens, read-out: sensitivity to ABT-737 (EC50 class)
Description: as §1, §2

NCI-H187 = experiment: sensitivity of SCLC cell line to ABT-737; type: cell-based; details: Homo sapiens, read-out: sensitivity to ABT-737 (EC50 class)
Description: as §1, §2

SW1271 = experiment: sensitivity of SCLC cell line to ABT-737; type: cell-based; details: Homo sapiens, read-out: sensitivity to ABT-737 (EC50 class)
Description: as §1, §2

NCI-H196 = experiment: sensitivity of SCLC cell line to ABT-737; type: cell-based; details: Homo sapiens, read-out: sensitivity to ABT-737 (EC50 class)
Description: as §1, §2

NCI-H345 = experiment: sensitivity of SCLC cell line to ABT-737; type: cell-based; details: Homo sapiens, read-out: sensitivity to ABT-737 (EC50 class)
Description: as §1, §2

NCI-H211 = experiment: sensitivity of SCLC cell line to ABT-737; type: cell-based; details: Homo sapiens, read-out: sensitivity to ABT-737 (EC50 class)
Description: as §1, §2

H69AR = experiment: sensitivity of SCLC cell line to ABT-737; type: cell-based; details: Homo sapiens, read-out: sensitivity to ABT-737 (EC50 class)
Description: as §1, §2

NCI-H146 = experiment: sensitivity of SCLC cell line to ABT-737; type: cell-based; details: Homo sapiens, read-out: sensitivity to ABT-737 (EC50 class)
Description: as §1, §2

NCI-H1417 = experiment: sensitivity of SCLC cell line to ABT-737; type: cell-based; details: Homo sapiens, read-out: sensitivity to ABT-737 (EC50 class)
Description: as §1, §2

NCI-H82 = experiment: sensitivity of SCLC cell line to ABT-737; type: cell-based; details: Homo sapiens, read-out: sensitivity to ABT-737 (EC50 class)
Description: as §1, §2

NCI-H510 = experiment: sensitivity of SCLC cell line to ABT-737; type: cell-based; details: Homo sapiens, read-out: sensitivity to ABT-737 (EC50 class)
Description: as §1, §2

NCI-H1963 = experiment: sensitivity of SCLC cell line to ABT-737; type: cell-based; details: Homo sapiens, read-out: sensitivity to ABT-737 (EC50 class)
Description: as §1, §2

NCI-H209 = experiment: sensitivity of SCLC cell line to ABT-737; type: cell-based; details: Homo sapiens, read-out: sensitivity to ABT-737 (EC50 class)
Description: as §1, §2

DMS 53 = experiment: sensitivity of SCLC cell line to ABT-737; type: cell-based; details: Homo sapiens; DMS 53 SCLC cell line; read-out: sensitivity to ABT-737 (EC50 class)
Description: as §1, §2

NCI-H889 = experiment: sensitivity of SCLC cell line to ABT-737; type: cell-based; details: Homo sapiens, read-out: sensitivity to ABT-737 (EC50 class)
Description: as §1, §2

solid tumors = details: from Oltersdorf, Nature 435: 677-681, 2005; cited from earlier work
[1] = tested on: SCLC and lymphoma cell lines; details: from Oltersdorf, Nature 435: 677-681, 2005; cited from earlier work

EC50 (NCI-H526): < 1000 nM
EC50 (NCI-H524): < 1000 nM
EC50 (NCI-H187): < 1000 nM
EC50 (SW1271): > 10 µM
EC50 (NCI-H196): > 10 µM
EC50 (NCI-H345): < 1000 nM
EC50 (NCI-H211): < 1000 nM
EC50 (H69AR): > 10 µM
EC50 (NCI-H146): < 1000 nM
EC50 (NCI-H1417): < 1000 nM
EC50 (NCI-H82): > 10 µM
EC50 (NCI-H510): < 1000 nM
EC50 (NCI-H1963): < 1000 nM
EC50 (NCI-H209): < 1000 nM
EC50 (DMS 53): < 1000 nM
EC50 (NCI-H889): < 1000 nM
Structure (SMILES): CN(C)CC[C@H](CSc1ccccc1)Nc1ccc(S(=O)(=O)NC(=O)c2ccc(N3CCN(Cc4ccccc4-c4ccc(Cl)cc4)CC3)cc2)cc1[N+](=O)[O-] [ABT-737, N-(4-(4-((4′-chloro(1,1′-biphenyl)-2-yl)methyl)piperazin-1-yl)benzoyl)-4-(((1R)-3-(dimethylamino)-1-((phenylsulfanyl)methyl)propyl)amino)-3-nitrobenzenesulfonamide]
effect on solid tumors (solid tumors): induce regression of solid tumors
potency against a diverse panel of human cancer cell lines [1]: selective potency against SCLC and lymphoma cell lines
